{
  "source": "patent US9157062B2",
  "about": "“Compositions and methods for promoting the generation of PDX1+ pancreatic cells” (President and Fellows of Harvard College, priority 2008, dated 2015)",
  "key": {"[1]": {"tested_on": "mouse ESC-derived definitive endoderm with Pdx1-GFP reporter", "test": "Pancreatic differentiation of mESC-derived definitive endoderm (Pdx1-GFP reporter)", "assay_type": "cell-based", "details": "300 nM ILV", "protocol": "Mouse embryonic stem cells (mESCs) with Pdx1-GFP reporter are routinely cultured on irradiated CF-1 MEF feeder cells in KnockOut DMEM (Invitrogen) supplemented with 15% FBS (Hyclone), 2 mM L-Glu, 1.1 mM 2-mercaptoethanol, 1 mM nonessential amino acids, 1×PS and 10^3 unit LIF (Chemicon). Cells are passaged at the ratio of 1:12 every 3 days by using 0.25% trypsin-EDTA (Invitrogen).\nTo generate a definitive endoderm population, mESCs were plated on gelatin-coated surface at 2500 cell/cm^2 after depletion of MEF feeder cells. Then, the cells were treated with 1000 ng/ml recombinant mouse Nodal (R&D systems) in A-RPMI supplemented with 1×L-Glu, 1×L-PS and 0.2% FBS for 5 days. […]\nTotal RNAs were extracted with the RNeasy Mini Kit (Qiagen) and reverse-transcribed using SuperScript III RT-PCR system (Invitrogen) according to the manufacturer's protocol. One microliter of cDNA sample was PCR amplified with QuantiFast SYBR Green PCR Kit (Qiagen) and analyzed with DNA engine Opticon2 (MJ Research).\nTo determine whether ILV functions on other species, the effect of ILV on a population of mouse ESCs (mESCs) that have been induced to form definitive endoderm was examined. […] The increase of Pdx1 expression can be further confirmed with immunostaining (FIG. 3b) and quantitative RT-PCR (qRT-PCR, FIG. 3c). […]"}, "HUES8-derived population [2]": {"tested_on": "HUES8-derived population", "test": "Illumina microarray of markers expressed in non-pancreatic tissues", "assay_type": "cell-based, human", "details": "300 nM ILV, 4 days", "protocol": "cRNA samples were prepared with an Illumina TotalPrep RNA Amplification Kit (Ambion). Data was acquired with an Illumina beadstation 500 (Illumina) and analyzed with beadstudio (Illumina).\nTo further characterize the cells induced by ILV, beyond Pdx1^+ expression, multiple pancreatic lineage markers were examined by immunocytochemistry and qRT-PCR. More than 96% of the Pdx1^+ cells following ILV treatment show significant expression of other pancreatic progenitor markers, including FOXA2 and HNF6 (FIG. 4a). After ILV treatment, Pdx1, HNF6, Ptfla, Sox9, FOXA2 mRNAs level increase (FIG. 4b)."}, "[3]": {"tested_on": "hESC-derived population (Pdx1+ cells)", "test": "ILV titration and test on other hESC lines, Pdx1+ cells", "assay_type": "cell-based, human", "protocol": "To generate a starting population, HUES cells were cultured on MEF feeder cells until 80-90% confluent, then treated with 25 ng/ml Wnt3a (R&D systems)+100 ng/ml Activin A (R&D systems) in advanced RPMI (A-RPMI, Invitrogen) supplemented with 1×L-Glu and 1×PS for 1 day, and then 100 ng/ml Activin A in A-RPMI supplemented with 1×L-Glu, 1×PS and 0.2% FBS (Invitrogen). Two days later, the media was changed to 50 ng/ml FGF10 (R&D systems)+0.25 μM KAAD-CYC (Calbiochem) in A-RPMI supplemented with 1×L-Glu, 1×PS and 2% FBS and maintained for additional 2 days. Cells were then transferred to 50 ng/ml FGF10+0.25 μM KAAD-CYC+2 μM RA (Sigma) in DMEM supplemented with 1×L-Glu, 1×PS, 1×B27 (Invitrogen) and cultured for an additional 4 days. ILV was obtained from Axxora, KAAD-CYC, TPB, PMA, BISI, Gö 6983, U0126 and PD98059 were obtained from Calbiochem and RA were obtained from Sigma.\n(§1) Cells were fixed with 10% formalin solution (Sigma) for 20 min at room temperature. Immunostaining was carried out with standard protocols. The following primary antibodies were used: goat anti-Pdx1 (1:500; R&D system); rabbit anti-FOXA2 (1:500; Upstate); rabbit anti-HNF6 (1:200; Santa Cruz Biotech); guinea pig anti-insulin (1:1000; Dako); rabbit anti-c-peptide (1:500; Linco); rabbit anti-amylase (1:200, Sigma); goat anti-HNF1β (1:100, Santa Cruz Biotech); and biotinylated DBA (1:400; Vector Lab). Alexa-488-, Alexa-555, and Alexa-647-conjugated donkey antibodies against mouse, rabbit, guinea pig and goat, and Pacific Blue conjugate-streptavidin (Invitrogen) were used at 1:300 dilution.\nAdditional experiments were carried out to optimize treatment to obtain more Pdx1^+ cells. […] Secondly, since hESC lines vary in their differentiation potentials (Osafune et al., 2008), ILV was tested on other hESC lines and shown to be effective on HUES 2, 4 and 8. After 4 days treatment with ILV, 26.9±2.8% cells of HUES8-derived population are positively stained by Pdx1 antibody (FIG. 2b), making it the most responsive of the lines tested."}, "HUES8-derived population [4]": {"tested_on": "HUES8-derived population", "test": "In vitro differentiation into pancreatic lineages with bFGF and nicotinamide", "assay_type": "cell-based, human", "protocol": "For growth factor-induced differentiation, the ILV-treated populations were cultured in DMEM/F12 supplemented with 1×N2 (Invitrogen), 2 mg/ml albumin fraction V (Invitrogen), and 10 ng/ml bFGF (Invitrogen) for the first 4 days. 10 mM nicotinamide (Sigma) was then added and maintained for additional 8 days, changing the media every 3 days.\nas §1\nIn mouse embryonic development, Pdx1^+ pancreatic progenitors contribute to exocrine, endocrine and duct cells (Gu et al., 2003). The developmental potential of Pdx1^+ cells produced by ILV treatment was tested in two assays. First, following published protocols for in vitro differentiation (Jiang et al., 2007), cells were cultured with bFGF and nicotinamide for an additional 12 days. Using this in vitro differentiation assay, four different induced cell types were tested, including HUES8-derived population before ILV treatment (no treatment), the HUES8-derived population after 4 day treatment with DMSO, 300 nM ILV or 300 nM ILV+50 ng/ml FGF10, respectively. After 12 days culture with bFGF and nicotinamide, these four populations of cells were stained with the antibodies against insulin, c-peptide, amylase or DBA (a duct marker)."}, "[5]": {"details": "4 day treatment (300 nM ILV, 50 ng/ml FGF10), then 12 days bFGF and nicotinamide"}},
  "data": [
    {"substance": "(−)-Indolactam V [ILV]", "values": [
      {"measurement": "percentage of GFP+ cells", "setting": "[1]; 6 days", "result": "50.0±6.1", "unit": "%"},
      {"measurement": "expression of mRNAs of pancreatic markers (Pdx1, Cdcp1, Ptfla, HNF6, FOXA2, Nkx2.2)", "setting": "[1]; qRT-PCR", "result": "increase"},
      {"measurement": "markers expressed in non-pancreatic tissues or organs (Sox7, Cdx2, Ces2, FABP2, AFP, albumin, BARX1, Troponin T, Sox2)", "setting": "HUES8-derived population [2]", "result": "either decrease or do not significantly change"},
      {"measurement": "effect on other hESC lines", "setting": "[3]; HUES 2, 4 and 8", "result": "effective"},
      {"measurement": "toxicity", "setting": "[3]; at 300 nM", "result": "no detectable toxicity"},
      {"measurement": "concentration of highest efficiency", "setting": "[3]; titration of ILV from 20 nM to 5 μM", "result": 300, "unit": "nM"},
      {"measurement": "EC50", "setting": "[3]; titration of ILV from 20 nM to 5 μM, read-out: EC50 (dose-dependent increase of Pdx1+ cells)", "result": 142, "unit": "nM"},
      {"measurement": "DBA+ duct cells", "setting": "HUES8-derived population [4]; [5]", "result": "3.6±1.3", "unit": "%"},
      {"measurement": "amylase+ exocrine cells", "setting": "HUES8-derived population [4]; [5]", "result": "22.7±5.3", "unit": "%"},
      {"measurement": "insulin+ cells", "setting": "HUES8-derived population [4]; [5]", "result": "0.5±0.2", "unit": "%"},
      {"measurement": "contribution to somatostatin+ cells", "setting": "HUES8-derived population [4]; compared to no treatment or DMSO, immunostaining and qRT-PCR", "result": "stronger ability to contribute"}
    ]}
  ]
}
